Data reported in PubChem BioAssay (NCI).
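Grown in 96-well plates, cells were treated for 48 hours with each compound at five concentrations. Insufficient inhibition: endpoint recorded as highest concentration tested. Here, GI50 denotes the concentration required for 50% inhibition of growth. At the TGI there is no net growth.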

Columns and labels:
Test in all cases: NCI anticancer screen, dose series, 48 h
T-47D breast = test system: T-47D breast
SW-620 colon = test system: SW-620 colon
TK-10 renal = test system: TK-10 renal
CCRF-CEM leukemia = test system: CCRF-CEM leukemia
MDA-MB-435 = test system: MDA-MB-435
NCI-H226 lung = test system: NCI-H226 lung
SR leukemia = test system: SR leukemia
OVCAR-5 ovarian = test system: OVCAR-5 ovarian
HL-60(TB) leukemia = test system: HL-60(TB) leukemia
SK-MEL-28 melanoma = test system: SK-MEL-28 melanoma
CAKI-1 renal = test system: CAKI-1 renal
SNB-19 CNS = test system: SNB-19 CNS
SN12C renal = test system: SN12C renal
NCI-H522 lung = test system: NCI-H522 lung
UACC-257 melanoma = test system: UACC-257 melanoma
786-0 renal = test system: 786-0 renal
M14 melanoma = test system: M14 melanoma
SF-295 CNS = test system: SF-295 CNS
HCT-15 colon = test system: HCT-15 colon
SF-539 CNS = test system: SF-539 CNS
COLO 205 colon = test system: COLO 205 colon
MCF7 breast = test system: MCF7 breast
HCT-116 colon = test system: HCT-116 colon
BT-549 breast = test system: BT-549 breast
ACHN renal = test system: ACHN renal
HT29 colon = test system: HT29 colon
DU-145 prostate = test system: DU-145 prostate
NCI-H23 lung = test system: NCI-H23 lung
HOP-62 NSCLC = test system: HOP-62 NSCLC
UO-31 renal = test system: UO-31 renal
MALME-3M melanoma = test system: MALME-3M melanoma
SK-MEL-5 melanoma = test system: SK-MEL-5 melanoma
HOP-92 NSCLC = test system: HOP-92 NSCLC
IGROV1 ovarian = test system: IGROV1 ovarian
KM12 colon = test system: KM12 colon
MDA-MB-231 breast = test system: MDA-MB-231 breast
SK-OV-3 ovarian = test system: SK-OV-3 ovarian
MOLT-4 leukemia = test system: MOLT-4 leukemia
PC-3 prostate = test system: PC-3 prostate
EKVX NSCLC = test system: EKVX NSCLC
SK-MEL-2 melanoma = test system: SK-MEL-2 melanoma
OVCAR-8 ovarian = test system: OVCAR-8 ovarian
HCC-2998 colon = test system: HCC-2998 colon
OVCAR-3 ovarian = test system: OVCAR-3 ovarian
OVCAR-4 ovarian = test system: OVCAR-4 ovarian
UACC-62 melanoma = test system: UACC-62 melanoma
A498 renal = test system: A498 renal
SNB-75 CNS = test system: SNB-75 CNS
LOX IMVI melanoma = test system: LOX IMVI melanoma
NCI-H460 lung = test system: NCI-H460 lung
A549 NSCLC = test system: A549 NSCLC
HS 578T breast = test system: HS 578T breast
K-562 leukemia = test system: K-562 leukemia
NCI/ADR-RES ovarian = test system: NCI/ADR-RES ovarian
SF-268 CNS = test system: SF-268 CNS
U251 CNS = test system: U251 CNS

## COc1cc(-c2nc3ccccc3s2)ccc1OCc1nc2n(n1)S(=O)(=O)c1ccccc1N2C
T-47D breast
  GI50: > 100 µM
  TGI: > 100 µM
SW-620 colon
  GI50: > 100 µM
  TGI: > 100 µM
TK-10 renal
  GI50: > 100 µM
  TGI: > 100 µM
CCRF-CEM leukemia
  GI50: > 100 µM
  TGI: > 100 µM
MDA-MB-435
  GI50: > 100 µM
  TGI: > 100 µM
NCI-H226 lung
  GI50: > 100 µM
  TGI: > 100 µM
SR leukemia
  GI50: > 100 µM
  TGI: > 100 µM
OVCAR-5 ovarian
  GI50: > 100 µM
  TGI: > 100 µM
HL-60(TB) leukemia
  GI50: > 100 µM
  TGI: > 100 µM
SK-MEL-28 melanoma
  GI50: > 100 µM
  TGI: > 100 µM
CAKI-1 renal
  GI50: > 100 µM
  TGI: > 100 µM
SNB-19 CNS
  GI50: > 100 µM
  TGI: > 100 µM
SN12C renal
  GI50: > 100 µM
  TGI: > 100 µM
NCI-H522 lung
  GI50: 96.8 µM
  TGI: > 100 µM
UACC-257 melanoma
  GI50: > 100 µM
  TGI: > 100 µM
786-0 renal
  GI50: > 100 µM
  TGI: > 100 µM
M14 melanoma
  GI50: > 100 µM
  TGI: > 100 µM
SF-295 CNS
  GI50: > 100 µM
  TGI: > 100 µM
HCT-15 colon
  GI50: > 100 µM
  TGI: > 100 µM
SF-539 CNS
  GI50: > 100 µM
  TGI: > 100 µM
COLO 205 colon
  GI50: > 100 µM
  TGI: > 100 µM
MCF7 breast
  GI50: > 100 µM
  TGI: > 100 µM
HCT-116 colon
  GI50: > 100 µM
  TGI: > 100 µM
BT-549 breast
  GI50: > 100 µM
  TGI: > 100 µM
ACHN renal
  GI50: > 100 µM
  TGI: > 100 µM
HT29 colon
  GI50: > 100 µM
  TGI: > 100 µM
DU-145 prostate
  GI50: > 100 µM
  TGI: > 100 µM
NCI-H23 lung
  GI50: > 100 µM
  TGI: > 100 µM
HOP-62 NSCLC
  GI50: > 100 µM
  TGI: > 100 µM
UO-31 renal
  GI50: > 100 µM
  TGI: > 100 µM
MALME-3M melanoma
  GI50: > 100 µM
  TGI: > 100 µM
SK-MEL-5 melanoma
  GI50: > 100 µM
  TGI: > 100 µM
HOP-92 NSCLC
  GI50: 43.9 µM
  TGI: > 100 µM
IGROV1 ovarian
  GI50: > 100 µM
  TGI: > 100 µM
KM12 colon
  GI50: > 100 µM
  TGI: > 100 µM
MDA-MB-231 breast
  GI50: > 100 µM
  TGI: > 100 µM
SK-OV-3 ovarian
  GI50: > 100 µM
  TGI: > 100 µM
MOLT-4 leukemia
  GI50: > 100 µM
  TGI: > 100 µM
PC-3 prostate
  GI50: > 100 µM
  TGI: > 100 µM
EKVX NSCLC
  GI50: > 100 µM
  TGI: > 100 µM
SK-MEL-2 melanoma
  GI50: > 100 µM
  TGI: > 100 µM
OVCAR-8 ovarian
  GI50: > 100 µM
  TGI: > 100 µM
HCC-2998 colon
  GI50: > 100 µM
  TGI: > 100 µM
OVCAR-3 ovarian
  GI50: 62.4 µM
  TGI: > 100 µM
OVCAR-4 ovarian
  GI50: > 100 µM
  TGI: > 100 µM
UACC-62 melanoma
  GI50: > 100 µM
  TGI: > 100 µM
A498 renal
  GI50: > 100 µM
  TGI: > 100 µM
SNB-75 CNS
  GI50: 99.6 µM
  TGI: > 100 µM
LOX IMVI melanoma
  GI50: > 100 µM
  TGI: > 100 µM
NCI-H460 lung
  GI50: > 100 µM
  TGI: > 100 µM
A549 NSCLC
  GI50: > 100 µM
  TGI: > 100 µM
HS 578T breast
  GI50: > 100 µM
  TGI: > 100 µM
K-562 leukemia
  GI50: 97.4 µM
  TGI: > 100 µM
NCI/ADR-RES ovarian
  GI50: > 100 µM
  TGI: > 100 µM
SF-268 CNS
  GI50: > 100 µM
  TGI: > 100 µM
U251 CNS
  GI50: > 100 µM
  TGI: > 100 µM
